Measured values published in patent US10947229B2, “Dimethyl amino azetidine amides as JAK inhibitors” (THERAVANCE BIOPHARMA R&D IP, LLC, priority 2018, dated 2021).

Legend:
Lung S9 metabolism = assay type: in vitro ADME, human; conditions: for Compound Remaining at 60 min (%) / microsomal CLint at 1 µM: human lung S9, 1 μM compound, 1 mg/mL S9 protein; for Sulfate Appearance: human lung S9, qualitative O-sulfate metabolite peak; for microsomal CLint at 1 µM: human lung S9 fraction, pH 7.4, NADPH and PAPS, read-out: Clearance
Method: The time 0, 15, 30, and 60 minute samples were analyzed for parent compound by high resolution LC-MS/MS. Lung S9 fractions from human (lot 1410245) were purchased from XenoTech LLC (Lenexa, Kans.). NADPH (Sigma Aldrich, N1630) and 3-phosphoadenosine 5-phosphosulfate (PAPS) (Sigma Aldrich, A1651) were purchased from Sigma Aldrich (St. Louis, Mo.). Acetonitrile and water were obtained from VWR (Radnor, Pa.) and were of HPLC grade or better. Raloxifene and formic acid was purchased from Sigma Aldrich (St. Louis, Mo.). Lung S9 incubations were performed in a water bath at 37° C. in a 96-well polypropylene plate. […] Louis, Mo.), 3 mM magnesium chloride (Sigma Aldrich, M1028) and in the presence of 100 μM PAPS (Sigma-Aldrich, St. […] Incubation volumes consisted of 400 μL and time points were taken at 0, 15, 30, and 60 minutes by the removal of a 70 μL aliquot and dilution into 140 μL acetonitrile (0% formic acid). All samples were centrifuged at 2250 g for 10 minutes at 5° C. Supernatant […] was taken from the centrifuged samples and diluted into 100 μL HPLC water containing internal standard. The samples were run on a Dionex Ultimate 3000 Auto sampler and analyzed using a Thermo Q-Exactive High Resolution Mass Spectrometer (Thermo, Waltham, Mass.) in Full Scan mode in conjunction with an Atlantis T3 column 3 μM-2.1×50 mm (Waters Inc., 186003717). Mobile Phase A consisted of Water+0.2% formic acid and Mobile Phase B consisted of acetonitrile +0.2% formic acid. Peak integration was accomplished using Gubbs GMSU software (Gubbs Inc., Alpharetta, Ga.). For each sample, peak area ratios were calculated by dividing the analyte peak area by the internal standard peak area. For each incubation, the peak area ratios of the analytes in each t0 was set to 100%, and the peak areas ratios from the 60 minute samples were converted to percentages remaining relative to the corresponding t0. Determination of sulfate metabolite formation was made qualitatively by observation of early-eluting peak in the parent ion channel which, based on historical internal data, corresponded to the O-sulfate metabolite of each parent compound.

Tyk2 = Tyk2 (Homo sapiens (Human), UniProt P29597); experiment: Biochemical JAK kinase assay (LanthaScreen), Tyk2
Method: (§1) Recombinant GST-tagged JAK enzymes and a GFP-tagged STAT1 peptide substrate were obtained from Life Technologies. Serially diluted compounds were pre-incubated with each of the four JAK enzymes and the substrate in white 384-well microplates (Corning) at ambient temperature for 1 h. ATP was subsequently added to initiate the kinase reactions in 10 μL total volume, with 1% DMSO. […] Kinase reactions were allowed to proceed for 1 hour at ambient temperature before a 10 μL preparation of EDTA (10 mM final concentration) and Tb-anti-pSTAT1 ([…]) antibody (Life Technologies, 2 nM final concentration) in TR-FRET dilution buffer (Life Technologies) was added. The plates were allowed to incubate at ambient temperature for 1 h before being read on the EnVision reader (Perkin Elmer). Emission ratio signals (520 nm/495 nm) were recorded and utilized to calculate the percent inhibition values based on DMSO and background controls. For dose-response analysis, percent inhibition data were plotted vs. compound concentrations, and IC50 values were determined from a 4-parameter robust fit model with the Prism software (GraphPad Software). Results were expressed as pIC50 (negative logarithm of IC50) and subsequently converted to pKi (negative logarithm of dissociation constant, Ki) using the Cheng-Prusoff equation.

JAK2 = JAK2 (Homo sapiens (Human), UniProt O60674); experiment: Biochemical JAK kinase assay (LanthaScreen), JAK2
Method: as §1, with “equation. Test compounds having a lower Ki value or higher pKi value in the four JAK assays show greater inhibition of JAK activity.” for “equation.”

[1] = system: IL-2 stimulated pSTAT5 in Tall-1 T cells; experiment: Inhibition of IL-2 stimulated pSTAT5 in Tall-1 T cells; assay type: cell-based; conditions: IL-2 stimulated pSTAT5, Tall-1 human T cell line; read-out: Tall-1 pIC50 (converted)
Method: The potency of test compounds for inhibition of interleukin-2 (IL-2) stimulated STAT5 phosphorylation was measured in the Tall-1 human T cell line (DSMZ) using AlphaLisa. Because IL-2 signals through JAK1/3, this assay provides a measure of JAK1/3 cellular potency.
Phosphorylated STAT5 was measured via the AlphaLISA SureFire Ultra pSTAT5 (Tyr694/699) kit (PerkinElmer).
Human T cells from the Tall-1 cell line were cultured in a 37° C., 5% CO2 humidified incubator in RPMI (Life Technologies) supplemented with 15% Heat Inactivated Fetal Bovine Serum (FBS, Life Technologies), 2 mM Glutamax (Life Technologies), 25 mM HEPES (Life Technologies) and 1× Pen/Strep (Life Technologies). Compounds were serially diluted in DMSO and dispensed acoustically to empty wells. Assay media (phenol red-free DMEM (Life Technologies) supplemented with 10% FBS (ATCC)) was dispensed (4 μL/well) and plates shaken at 900 rpm for 10 mins. Cells were seeded at 45,000 cells/well in assay media (4 μL/well), and incubated at 37° C., 5% CO2 for 1 hour, followed by the addition of IL-2 (R&D Systems; final concentration 300 ng/mL) in pre-warmed assay media (4 μL) for 30 minutes. After cytokine stimulation, cells were lysed with 6 ul of 3× AlphaLisa Lysis Buffer (PerkinElmer) containing 1× PhosStop and Complete tablets (Roche). The lysate was shaken at 900 rpm for 10 minutes at room temperature (RT). Phosphorylated STAT5 was measured via the pSTAT5 AlphaLisa kit (PerkinElmer). Freshly prepared acceptor bead mixture was dispensed onto lysate (5 μL) under green filtered <100 lux light. Plates were shaken at 900 rpm for 2 mins, briefly spun down, and incubated for 2 hrs at RT in the dark. Donor beads were dispensed (5 μL) under green filtered <100 lux light. Plates were shaken at 900 rpm for 2 minutes, briefly spun down, and incubated overnight at RT in the dark. Luminescence was measured with excitation at 689 nm and emission at 570 nm using an EnVision plate reader (PerkinElmer) under green filtered <100 lux light.
To determine the inhibitory potency of test compounds in response to IL-2, the average emission intensity of beads bound to pSTAT5 was measured in a human T cell line. IC50 values were determined from analysis of the inhibition curves of signal intensity versus compound concentration. Data are expressed as pIC50 (negative decadic logarithm IC50) values (mean±standard deviation).

JAK1 = JAK1 (Homo sapiens (Human), UniProt P23458); experiment: Biochemical JAK kinase assay (LanthaScreen), JAK1; conditions: read-out: JAK1 pKi (converted)
Method: as §1

JAK2, sequence (O60674 whole entry): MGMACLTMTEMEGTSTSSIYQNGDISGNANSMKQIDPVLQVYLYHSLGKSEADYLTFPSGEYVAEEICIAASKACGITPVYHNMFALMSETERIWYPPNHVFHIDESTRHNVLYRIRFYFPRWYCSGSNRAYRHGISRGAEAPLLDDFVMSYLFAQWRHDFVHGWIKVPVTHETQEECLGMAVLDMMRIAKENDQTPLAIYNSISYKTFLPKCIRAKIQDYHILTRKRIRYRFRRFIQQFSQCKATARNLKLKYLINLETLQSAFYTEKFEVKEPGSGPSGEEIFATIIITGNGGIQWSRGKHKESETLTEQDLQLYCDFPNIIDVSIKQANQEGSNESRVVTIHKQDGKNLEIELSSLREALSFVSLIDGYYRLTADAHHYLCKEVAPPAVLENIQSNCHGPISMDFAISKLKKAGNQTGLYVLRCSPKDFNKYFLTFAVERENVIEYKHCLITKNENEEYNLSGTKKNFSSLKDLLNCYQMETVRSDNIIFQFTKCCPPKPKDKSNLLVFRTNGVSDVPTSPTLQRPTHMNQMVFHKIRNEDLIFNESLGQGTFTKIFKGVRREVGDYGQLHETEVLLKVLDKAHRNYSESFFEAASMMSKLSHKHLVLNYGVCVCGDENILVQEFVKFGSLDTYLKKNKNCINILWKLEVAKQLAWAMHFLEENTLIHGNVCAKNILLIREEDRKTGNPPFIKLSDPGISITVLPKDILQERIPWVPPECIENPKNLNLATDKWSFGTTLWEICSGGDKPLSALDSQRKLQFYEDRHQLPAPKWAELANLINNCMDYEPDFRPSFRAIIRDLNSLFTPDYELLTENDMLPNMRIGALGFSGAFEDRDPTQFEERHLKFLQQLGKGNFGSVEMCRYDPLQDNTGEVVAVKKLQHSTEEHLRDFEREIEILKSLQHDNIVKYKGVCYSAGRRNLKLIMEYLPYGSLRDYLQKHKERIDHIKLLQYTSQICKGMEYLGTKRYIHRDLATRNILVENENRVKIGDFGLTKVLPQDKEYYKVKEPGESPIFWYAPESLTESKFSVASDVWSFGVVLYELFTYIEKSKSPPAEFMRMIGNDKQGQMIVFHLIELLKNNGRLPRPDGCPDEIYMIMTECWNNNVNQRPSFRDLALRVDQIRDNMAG
JAK1, sequence (P23458 whole entry): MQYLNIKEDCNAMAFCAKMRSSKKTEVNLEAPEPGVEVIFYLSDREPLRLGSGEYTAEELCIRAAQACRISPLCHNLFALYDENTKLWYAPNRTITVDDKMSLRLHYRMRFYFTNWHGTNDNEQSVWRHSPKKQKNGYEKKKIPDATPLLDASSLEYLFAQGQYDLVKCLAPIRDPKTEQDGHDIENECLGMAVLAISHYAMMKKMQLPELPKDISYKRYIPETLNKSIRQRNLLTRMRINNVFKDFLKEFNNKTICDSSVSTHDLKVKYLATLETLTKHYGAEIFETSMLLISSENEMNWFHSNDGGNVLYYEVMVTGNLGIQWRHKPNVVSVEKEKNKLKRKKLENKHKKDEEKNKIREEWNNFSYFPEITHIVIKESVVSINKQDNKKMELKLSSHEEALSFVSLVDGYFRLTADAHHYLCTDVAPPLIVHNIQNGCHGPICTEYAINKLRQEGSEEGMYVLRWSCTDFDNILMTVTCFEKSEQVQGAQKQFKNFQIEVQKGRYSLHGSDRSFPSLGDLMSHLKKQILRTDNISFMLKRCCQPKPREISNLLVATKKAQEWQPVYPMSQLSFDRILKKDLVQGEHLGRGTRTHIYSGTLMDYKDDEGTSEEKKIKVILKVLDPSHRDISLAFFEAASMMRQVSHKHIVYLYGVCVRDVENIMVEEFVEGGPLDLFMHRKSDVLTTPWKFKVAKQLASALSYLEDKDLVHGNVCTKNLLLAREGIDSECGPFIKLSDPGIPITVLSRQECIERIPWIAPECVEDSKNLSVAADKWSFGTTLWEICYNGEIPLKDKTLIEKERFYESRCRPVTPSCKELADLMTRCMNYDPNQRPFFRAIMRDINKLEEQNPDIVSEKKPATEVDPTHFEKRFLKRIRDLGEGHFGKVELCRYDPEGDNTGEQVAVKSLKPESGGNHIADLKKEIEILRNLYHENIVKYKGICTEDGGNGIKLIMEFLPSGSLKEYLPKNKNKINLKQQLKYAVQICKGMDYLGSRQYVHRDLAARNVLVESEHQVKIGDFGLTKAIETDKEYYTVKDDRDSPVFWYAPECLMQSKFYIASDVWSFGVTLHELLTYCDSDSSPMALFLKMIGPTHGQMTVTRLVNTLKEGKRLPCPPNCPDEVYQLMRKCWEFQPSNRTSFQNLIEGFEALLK
Tyk2, sequence (P29597 whole entry): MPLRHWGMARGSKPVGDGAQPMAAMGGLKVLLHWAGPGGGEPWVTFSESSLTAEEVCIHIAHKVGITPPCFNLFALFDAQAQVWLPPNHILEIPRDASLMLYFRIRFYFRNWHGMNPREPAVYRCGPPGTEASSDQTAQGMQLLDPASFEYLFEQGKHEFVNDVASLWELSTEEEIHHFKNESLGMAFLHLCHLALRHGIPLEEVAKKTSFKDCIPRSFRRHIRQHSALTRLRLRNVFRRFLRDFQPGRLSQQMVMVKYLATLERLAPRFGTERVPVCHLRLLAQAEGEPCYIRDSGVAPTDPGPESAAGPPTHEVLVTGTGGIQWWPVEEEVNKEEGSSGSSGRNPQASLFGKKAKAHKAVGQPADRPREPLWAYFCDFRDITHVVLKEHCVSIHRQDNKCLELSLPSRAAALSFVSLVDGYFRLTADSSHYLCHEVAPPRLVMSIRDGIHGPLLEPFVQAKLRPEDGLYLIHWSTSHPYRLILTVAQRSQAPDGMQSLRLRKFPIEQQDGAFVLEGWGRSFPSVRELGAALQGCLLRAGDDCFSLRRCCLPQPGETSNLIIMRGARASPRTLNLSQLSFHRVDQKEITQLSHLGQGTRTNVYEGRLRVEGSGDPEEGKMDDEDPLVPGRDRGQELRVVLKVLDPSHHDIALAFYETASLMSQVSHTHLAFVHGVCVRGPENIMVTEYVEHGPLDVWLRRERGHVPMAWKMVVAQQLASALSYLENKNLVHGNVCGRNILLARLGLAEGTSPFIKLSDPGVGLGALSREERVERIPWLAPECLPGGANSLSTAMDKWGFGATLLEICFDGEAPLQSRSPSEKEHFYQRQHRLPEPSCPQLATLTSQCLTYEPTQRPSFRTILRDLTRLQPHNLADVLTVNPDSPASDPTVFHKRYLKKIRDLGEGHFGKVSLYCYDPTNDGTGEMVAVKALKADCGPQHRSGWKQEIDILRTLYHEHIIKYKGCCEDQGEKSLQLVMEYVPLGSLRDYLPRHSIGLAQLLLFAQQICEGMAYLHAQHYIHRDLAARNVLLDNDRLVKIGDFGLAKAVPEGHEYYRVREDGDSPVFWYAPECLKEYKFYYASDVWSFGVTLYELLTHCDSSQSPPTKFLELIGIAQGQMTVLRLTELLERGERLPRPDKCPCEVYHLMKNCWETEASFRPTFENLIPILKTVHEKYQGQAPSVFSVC

SMILES | Compound Remaining at 60 min (%) (Lung S9 metabolism) | Sulfate Appearance (Lung S9 metabolism) | microsomal CLint at 1 µM (Lung S9 metabolism) [µL/min/mg] | Tyk2 pKi (Tyk2) | JAK2 pKi (JAK2) | IC50 [1] [nM] | Ki (JAK2; read-out: JAK2 pKi (converted)) [nM] | Ki (JAK1) [nM]
CCc1cc(O)c(F)cc1-c1ccc2c(-c3nc4c([nH]3)CN(C(C)C)[C@H](C(=O)N3CC(N(C)C)C3)C4)n[nH]c2c1 [Compound C-1, (S)-(3-(dimethylamino)azetidin-1-yl)(2-(6-(2-ethyl-5-fluoro-4-hydroxyphenyl)-1H-indazol-3-yl)-5-isopropyl-4,5,6,7-tetrahydro-3H-imidazo[4,5-c]pyridin-6-yl)methanone] | 6 | Yes | 49 | – | – | – | – | –
CCc1cc(O)ccc1-c1ccc2c(-c3nc4c([nH]3)CN(CC)[C@H](C(=O)N3CC(C)(N(C)C)C3)C4)n[nH]c2c1 [Compound 3, (S)-(3-(dimethylamino)-3-methylazetidin-1-yl)(5-ethyl-2-(6-(2-ethyl-4-hydroxyphenyl)-1H-indazol-3-yl)-4,5,6,7-tetrahydro-3H-imidazo[4,5-c]pyridin-6-yl)methanone] | 97 | Yes | 0.8 | – | – | – | – | –
CCc1cc(O)ccc1-c1ccc2c(-c3nc4c([nH]3)CN(C(C)C)[C@H](C(=O)N3CC(C)(N(C)C)C3)C4)n[nH]c2c1 [Compound 4, (S)-(3-(dimethylamino)-3-methylazetidin-1-yl)(2-(6-(2-ethyl-4-hydroxyphenyl)-1H-indazol-3-yl)-5-isopropyl-4,5,6,7-tetrahydro-3H-imidazo[4,5-c]pyridin-6-yl)methanone] | 100 | Yes | – | – | – | – | – | –
CCc1cc(O)c(F)cc1-c1ccc2c(-c3nc4c([nH]3)CN(CC)[C@H](C(=O)N3CC(C)(N(C)C)C3)C4)n[nH]c2c1 [Compound C-3, (S)-(3-(dimethylamino)-3-methylazetidin-1-yl)(5-ethyl-2-(6-(2-ethyl-5-fluoro-4-hydroxyphenyl)-1H-indazol-3-yl)-4,5,6,7-tetrahydro-3H-imidazo[4,5-c]pyridin-6-yl)methanone] | 5 | Yes | 50.6 | 9.4 | 10.9 | 2 | – | –
CCCN1Cc2[nH]c(-c3n[nH]c4cc(-c5ccc(O)cc5CC)ccc34)nc2C[C@H]1C(=O)N1CC(C)(N(C)C)C1 [Compound 6, (S)-(3-(dimethylamino)-3-methylazetidin-1-yl)(2-(6-(2-ethyl-4-hydroxyphenyl)-1H-indazol-3-yl)-5-propyl-4,5,6,7-tetrahydro-3H-imidazo[4,5-c]pyridin-6-yl)methanone] | 90 | Yes | 1.8 | – | – | – | 0.0316 | –
CCCN1Cc2[nH]c(-c3n[nH]c4cc(-c5cc(F)c(O)cc5CC)ccc34)nc2C[C@H]1C(=O)N1CC(C)(N(C)C)C1 [Compound C-6, (S)-(3-(dimethylamino)-3-methylazetidin-1-yl)(2-(6-(2-ethyl-5-fluoro-4-hydroxyphenyl)-1H-indazol-3-yl)-5-propyl-4,5,6,7-tetrahydro-3H-imidazo[4,5-c]pyridin-6-yl)methanone] | 4 | Yes | 53.5 | – | 10.7 | 2.51 | – | –
CCc1cc(O)ccc1-c1ccc2c(-c3nc4c([nH]3)CN(CC)[C@H](C(=O)N3CC(N(C)C)C3)C4)n[nH]c2c1 [Compound 2, (S)-(3-(dimethylamino)azetidin-1-yl)(5-ethyl-2-(6-(2-ethyl-4-hydroxyphenyl)-1H-indazol-3-yl)-4,5,6,7-tetrahydro-3H-imidazo[4,5-c]pyridin-6-yl)methanone] | 98 | Yes | 0.6 | – | – | – | – | –
CCCN1Cc2[nH]c(-c3n[nH]c4cc(-c5ccc(O)cc5CC)ccc34)nc2C[C@H]1C(=O)N1CC(N(C)C)C1 [Compound 5, (S)-(3-(dimethylamino)azetidin-1-yl)(2-(6-(2-ethyl-4-hydroxyphenyl)-1H-indazol-3-yl)-5-propyl-4,5,6,7-tetrahydro-3H-imidazo[4,5-c]pyridin-6-yl)methanone] | 96 | Yes | 1.6 | – | – | – | – | 0.0316
